Results as given in ChEMBL document CHEMBL4680119, “Battle tactics against MMP-9; discovery of novel non-hydroxamate MMP-9 inhibitors endowed with PI3K/AKT signaling attenuation and caspase 3/7 activation via Ugi bis-amide synthesis” (Eur J Med Chem, 2020).
Activity calls are given as the source filed them. The calls are words filed in the database; no cut-off is given here.

Tests used:
HepG2 [1] = experiment: Induction of cell morphological changes in human HepG2 cells assessed as loss in cell shape by microscopic analysis; type: functional, cell-based
[2] = target: Matrix metalloproteinase-9 (Homo sapiens, UniProt P14780); experiment: Inhibition of MMP-9 (unknown origin) by colorimetric assay
MCF7 [3] = experiment: Induction of cell morphological changes in human MCF7 cells assessed as loss in cell shape by microscopic analysis; type: functional, cell-based
[4] = Induction of apoptosis in […] cells assessed as increase in caspase-3/7 activation by flow cytometric analysis; type: functional, Mus musculus
MCF7 [5] = experiment: Induction of apoptosis in human MCF-7 cells assessed as early apoptosis by annexinV/propidium iodide staining based by flow cytometry (reference value: 0.47+/- 0.01%); type: functional
MCF7 [6] = experiment: cells; conditions: Homo sapiens
Description: Anticancer activity against human MCF7 cells assessed as reduction in cell viability by MTT assay

[7] = Anticancer activity against […] cells assessed as reduction in cell viability by MTT assay; type: functional, cell-based; conditions: Mus musculus
HepG2 [8] = experiment: Induction of apoptosis in human HepG2 cells assessed as early apoptosis by annexinV/propidium iodide staining based by flow cytometry (reference value: 0.78+/- 0.09%); type: functional
MCF7 [9] = experiment: Induction of apoptosis in human MCF7 cells assessed as increase in caspase-3/7 activation by flow cytometric analysis; type: functional
WI-38 = experiment: Cytotoxicity against human WI-38 cells assessed as reduction in cell viability by MTT assay; type: cell-based; conditions: for IC50: Homo sapiens, WI-38; for EC100: human, wi-38
[10] = Induction of apoptosis in […] cells assessed as late apoptosis by annexinV/propidium iodide staining based by flow cytometry (reference value: 0.015+/- 0.01%); type: functional, Mus musculus
HepG2 [11] = experiment: Anticancer activity against human HepG2 cells assessed as reduction in cell viability by MTT assay; type: functional, cell-based
[12] = Induction of apoptosis in […] cells assessed as total apoptosis by annexinV/propidium iodide staining based by flow cytometry (reference value: 0.495+/- 0.01%); type: functional, Mus musculus
MCF7 [13] = experiment: Induction of apoptosis in human MCF-7 cells assessed as total apoptosis by annexin V/propidium iodide staining based by flow cytometry (reference value: 0.48+/- 0.01%); type: functional
HepG2 [14] = experiment: Induction of apoptosis in human HepG2 cells assessed as late apoptosis by annexinV/propidium iodide staining based by flow cytometry (reference value: 0.1+/- 0.001%); type: functional
in vitro = conditions: human, WI38 cells and HepG2 cells
Description: Selectivity index, ratio of IC50 for human WI38 cells to IC50 for human HepG2 cells

MCF7 [15] = experiment: Induction of apoptosis in human MCF7 cells assessed as cell shrinkage by microscopic analysis; type: functional, cell-based
HepG2 [16] = experiment: Inhibition of cell migration in human HepG2 cells incubated for 24 hrs by wound healing assay; type: functional
[17] = Induction of apoptosis in […] cells assessed as early apoptosis by annexinV/propidium iodide staining based by flow cytometry (reference value: 0.02+/- 0.01%); type: functional, Mus musculus
HepG2 [18] = experiment: Induction of apoptosis in human HepG2 cells assessed as increase in caspase-3/7 activation by flow cytometric analysis; type: functional
MCF7 [19] = experiment: Induction of apoptosis in human MCF-7 cells assessed as late apoptosis by annexinV/propidium iodide staining based by flow cytometry (reference value: 0.01+/- 0.001%); type: functional
[20] = target: 72 kDa type IV collagenase (Homo sapiens, UniProt P08253); experiment: Inhibition of MMP-2 (unknown origin) by colorimetric assay
Interstitial collagenase = target: T1, Interstitial collagenase (Homo sapiens, UniProt P03956); experiment: Inhibition of MMP-1 (unknown origin) by colorimetric assay
T1 sequence (P03956 whole entry): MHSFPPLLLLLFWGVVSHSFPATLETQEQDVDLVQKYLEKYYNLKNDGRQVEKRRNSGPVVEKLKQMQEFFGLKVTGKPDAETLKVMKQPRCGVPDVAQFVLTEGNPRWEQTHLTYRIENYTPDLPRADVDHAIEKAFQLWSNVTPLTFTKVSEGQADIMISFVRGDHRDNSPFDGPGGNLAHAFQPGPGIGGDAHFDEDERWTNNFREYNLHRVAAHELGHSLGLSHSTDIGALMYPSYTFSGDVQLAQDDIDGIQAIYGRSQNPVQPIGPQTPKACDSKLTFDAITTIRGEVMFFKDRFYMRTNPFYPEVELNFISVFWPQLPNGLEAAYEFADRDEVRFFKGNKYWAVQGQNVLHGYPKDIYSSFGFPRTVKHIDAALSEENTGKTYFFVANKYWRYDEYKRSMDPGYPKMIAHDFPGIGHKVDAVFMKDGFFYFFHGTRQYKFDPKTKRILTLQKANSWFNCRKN

NFS-60 [21] = experiment: Induction of cell morphological changes in […] cells assessed as loss in cell shape by microscopic analysis; type: functional, cell-based; conditions: Mus musculus
HepG2 [22] = experiment: Induction of apoptosis in human HepG2 cells assessed as total apoptosis by annexin/propidium iodide staining based by flow cytometry (reference value: 0.169+/- 0.02%); type: functional
NFS-60 [23] = experiment: Induction of apoptosis in […] cells assessed as cell shrinkage by microscopic analysis; type: functional, cell-based
Collagenase 3 = Collagenase 3 (Homo sapiens, UniProt P45452); experiment: Inhibition of MMP-13 (unknown origin) by colorimetric assay
HepG2 [24] = experiment: Induction of apoptosis in human HepG2 cells assessed as cell shrinkage by microscopic analysis; type: functional, cell-based

Matrix metalloproteinase-9, sequence (P14780 whole entry): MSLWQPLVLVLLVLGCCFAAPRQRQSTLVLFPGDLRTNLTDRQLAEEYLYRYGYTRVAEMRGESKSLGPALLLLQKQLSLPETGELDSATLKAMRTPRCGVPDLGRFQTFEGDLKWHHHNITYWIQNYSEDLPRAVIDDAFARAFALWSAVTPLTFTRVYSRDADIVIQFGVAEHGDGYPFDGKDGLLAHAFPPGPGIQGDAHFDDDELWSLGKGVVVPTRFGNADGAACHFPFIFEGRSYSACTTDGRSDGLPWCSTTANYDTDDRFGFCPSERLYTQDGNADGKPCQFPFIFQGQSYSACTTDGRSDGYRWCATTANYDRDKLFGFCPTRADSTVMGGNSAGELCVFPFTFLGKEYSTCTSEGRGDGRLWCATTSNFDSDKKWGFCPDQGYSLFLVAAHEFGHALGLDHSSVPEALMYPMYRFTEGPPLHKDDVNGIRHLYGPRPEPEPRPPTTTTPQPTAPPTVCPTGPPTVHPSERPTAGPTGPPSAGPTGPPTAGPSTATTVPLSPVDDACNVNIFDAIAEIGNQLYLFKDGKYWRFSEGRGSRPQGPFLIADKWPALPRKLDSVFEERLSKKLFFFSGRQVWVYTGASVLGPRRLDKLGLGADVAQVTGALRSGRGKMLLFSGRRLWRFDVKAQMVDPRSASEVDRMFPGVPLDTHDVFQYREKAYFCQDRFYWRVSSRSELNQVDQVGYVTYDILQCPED
72 kDa type IV collagenase, sequence (P08253 whole entry): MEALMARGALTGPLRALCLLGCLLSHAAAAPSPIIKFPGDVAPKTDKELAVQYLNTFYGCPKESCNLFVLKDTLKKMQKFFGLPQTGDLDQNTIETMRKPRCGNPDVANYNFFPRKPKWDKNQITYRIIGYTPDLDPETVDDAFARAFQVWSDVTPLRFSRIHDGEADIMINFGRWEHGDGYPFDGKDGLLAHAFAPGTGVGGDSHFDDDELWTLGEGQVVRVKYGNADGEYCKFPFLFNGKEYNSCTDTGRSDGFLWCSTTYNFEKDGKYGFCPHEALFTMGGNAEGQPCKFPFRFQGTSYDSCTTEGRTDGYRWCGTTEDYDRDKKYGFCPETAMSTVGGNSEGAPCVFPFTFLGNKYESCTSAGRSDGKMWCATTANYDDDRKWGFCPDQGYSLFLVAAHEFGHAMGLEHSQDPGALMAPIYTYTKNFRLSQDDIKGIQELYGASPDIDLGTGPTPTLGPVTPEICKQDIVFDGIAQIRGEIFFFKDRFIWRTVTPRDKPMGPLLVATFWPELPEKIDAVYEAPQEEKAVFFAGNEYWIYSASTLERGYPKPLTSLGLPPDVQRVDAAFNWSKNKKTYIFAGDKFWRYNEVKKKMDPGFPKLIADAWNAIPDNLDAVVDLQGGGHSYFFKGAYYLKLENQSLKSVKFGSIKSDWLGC

## O=C(Nc1ccc([N+](=O)[O-])cc1)C(c1ccc([N+](=O)[O-])cc1)N(C(=O)c1ccc(C(F)(F)F)cc1)c1ccccc1 (stereo unspecified)
HepG2 [1]
  Activity: Active
[2]
  IC50: 7.46 nM
MCF7 [3]
  Activity: Active
[4]
  Activity: 62.703%
MCF7 [5]
  Activity: 18.28%
MCF7 [6]
  IC50: 3.6 nM
[7]
  IC50: 3.61 nM
HepG2 [8]
  Activity: 26.46%
MCF7 [9]
  Activity: 65.725%
WI-38
  IC50: 374 nM
  EC100: 107.4 nM
[10]
  Activity: 28.33%
HepG2 [11]
  IC50: 2.2 nM
[12]
  Activity: 67.485%
MCF7 [13]
  Activity: 69.005%
HepG2 [14]
  Activity: 43.95%
In vitro
  selectivity ratio: 170
MCF7 [15]
  Activity: Active
HepG2 [16]
  inhibition (INH): 93.77%
[17]
  Activity: 39.15%
HepG2 [18]
  Activity: 70.745%
MCF7 [19]
  Activity: 50.72%
[20]
  IC50: 139 nM
Interstitial collagenase
  IC50: 41 nM
NFS-60 [21]
  Activity: Active
HepG2 [22]
  Activity: 70.415%
NFS-60 [23]
  Activity: Active
Collagenase 3
  IC50: 113 nM
HepG2 [24]
  Activity: Active

## O=C(Nc1ccc([N+](=O)[O-])cc1)C(c1ccccc1)N(C(=O)c1ccccc1I)c1ccccc1 (stereo unspecified)
HepG2 [1]
  Activity: Active
[2]
  IC50: 4.49 nM
MCF7 [3]
  Activity: Active
[4]
  Activity: 63.86%
MCF7 [5]
  Activity: 31.78%
MCF7 [6]
  IC50: 6.9 nM
[7]
  IC50: 5.5 nM
HepG2 [8]
  Activity: 14.02%
MCF7 [9]
  Activity: 64.93%
WI-38
  IC50: 35.1 nM
  EC100: 10.3 nM
[10]
  Activity: 58.08%
HepG2 [11]
  IC50: 3.1 nM
[12]
  Activity: 68.07%
MCF7 [13]
  Activity: 61.605%
HepG2 [14]
  Activity: 55.35%
In vitro
  selectivity ratio: 11.3
MCF7 [15]
  Activity: Active
HepG2 [16]
  inhibition (INH): 59.35%
[17]
  Activity: 9.99%
HepG2 [18]
  Activity: 70.708%
MCF7 [19]
  Activity: 29.82%
[20]
  IC50: 266 nM
Interstitial collagenase
  IC50: 104 nM
NFS-60 [21]
  Activity: Active
HepG2 [22]
  Activity: 69.375%
NFS-60 [23]
  Activity: Active
Collagenase 3
  IC50: 280 nM
HepG2 [24]
  Activity: Active

## O=C(Nc1ccc([N+](=O)[O-])cc1)C(c1ccccc1)N(Cc1ccccc1)C(=O)Cc1ccccc1 (stereo unspecified)
HepG2 [1]
  Activity: Active
[2]
  IC50: 5.56 nM
MCF7 [3]
  Activity: Active
[4]
  Activity: 53.86%
MCF7 [5]
  Activity: 27.39%
MCF7 [6]
  IC50: 6.6 nM
[7]
  IC50: 5.8 nM
HepG2 [8]
  Activity: 19.08%
MCF7 [9]
  Activity: 51.928%
WI-38
  IC50: 314 nM
  EC100: 93.5 nM
[10]
  Activity: 39.08%
HepG2 [11]
  IC50: 5.7 nM
[12]
  Activity: 55.35%
MCF7 [13]
  Activity: 49.19%
HepG2 [14]
  Activity: 36.1%
In vitro
  selectivity ratio: 55.1
HepG2 [16]
  inhibition (INH): 71.25%
[17]
  Activity: 16.26%
HepG2 [18]
  Activity: 59.13%
MCF7 [19]
  Activity: 21.79%
[20]
  IC50: 221 nM
Interstitial collagenase
  IC50: 47 nM
NFS-60 [21]
  Activity: Active
HepG2 [22]
  Activity: 55.19%
Collagenase 3
  IC50: 295 nM

## COc1cccc2c1C(=O)c1c(O)c3c(c(O)c1C2=O)C[C@@](O)(C(=O)CO)C[C@@H]3O[C@H]1C[C@H](N)[C@H](O)[C@H](C)O1 [DOXORUBICIN]
HepG2 [1]
  Activity: Active
MCF7 [3]
  Activity: Active
[4]
  Activity: 45.39%
MCF7 [5]
  Activity: 13.53%
[7]
  IC50: 13 nM
HepG2 [8]
  Activity: 10.59%
MCF7 [9]
  Activity: 42.94%
WI-38
  EC100: 12.1 nM
[10]
  Activity: 23.215%
[12]
  Activity: 34.595%
MCF7 [13]
  Activity: 33.974%
HepG2 [14]
  Activity: 25.49%
[17]
  Activity: 11.379%
HepG2 [18]
  Activity: 48.09%
MCF7 [19]
  Activity: 20.445%
NFS-60 [21]
  Activity: Active
HepG2 [22]
  Activity: 36.08%
